Reference: US12187720B2, “Compounds for treatment of cancer” (ONCTERNAL THERAPEUTICS, INC., priority 2010, dated 2025)
≈ marks a conversion by molar mass, not a printed value. Structures can show the parent of a compound that is named as a salt. Where two headings read alike, the source gives them in different places.

What was measured:
[1] = tested on: A375; experiment: SRB cytotoxicity assay, A375 human melanoma cells; format: cell-based; conditions: read-out: IC50 ± SEM A375
[2] = Metabolic stability in human liver microsomes; conditions: for half-life at 0.5 μM: human, liver microsomes, pH 7.4
[3] = tested on: melanoma and prostate cancer cell lines; experiment: SRB cytotoxicity, summary or average over melanoma and prostate cancer cell lines; format: cell-based; conditions: for IC50: average of all seven cell lines
[4] = Aqueous solubility, Multiscreen Solubility Filter Plate with LC-MS/MS (PBS pH 7.4); format: physicochemical; conditions: for aqueous solubility: PBS pH 7.4
[5] = Pharmacokinetic study in Sprague-Dawley rats; conditions: for CL (systemic clearance) / Vss (volume of distribution following intravenous dosing): IV, […] (1h, 2r), 5 mg/kg (5Ha, 5Hc); for F (percent oral bioavailability), rat: rats, PO versus IV
[6] = tested on: PPC-1; experiment: SRB cytotoxicity assay, PPC-1 prostate cancer cells; format: cell-based, human; conditions: Homo sapiens, PPC-1
Excerpt: (§1) Cells were stained with SRB solution.

[7] = tested on: DU 145; experiment: SRB cytotoxicity assay, DU 145 prostate cancer cells; format: cell-based; conditions: Homo sapiens
Excerpt: as §1

[8] = tested on: PC-3; experiment: SRB cytotoxicity assay, PC-3 prostate cancer cells; format: cell-based, human; conditions: Homo sapiens, PC-3
Excerpt: as §1

[9] = tested on: LNCaP; experiment: SRB cytotoxicity assay, LNCaP prostate cancer cells; format: cell-based, human; conditions: Homo sapiens, LNCaP
Excerpt: as §1

[10] = tested on: WM-164; experiment: SRB cytotoxicity assay, WM-164 human melanoma cells; format: cell-based; conditions: Homo sapiens
[11] = tested on: MDA-MB-435/LCCMDR1; experiment: SRB cytotoxicity assay, multidrug-resistant MDA-MB-435/LCCMDR1 melanoma cells; format: cell-based, human; conditions: for IC50: Homo sapiens, read-out: IC50 ± SEM MDA-MB-435/LCC6MDR1
[12] = Metabolic stability in dog liver microsomes; format: in vitro ADME; conditions: dog, dog liver microsomes, pH 7.4; Table 20; read-out: Half life in Dog liver microsome
[13] = in vivo; conditions: male, ICR, mouse, plasma, po, 20 mg/kg
[14] = in vivo; conditions: female, Sprague-Dawley, rat, plasma
[15] = Metabolic stability in mouse liver microsomes; format: in vitro ADME; conditions: mouse, liver microsomes, pH 7.4, Table 20; read-out: Half life in Mouse liver microsome
[16] = Metabolic stability in rat liver microsomes; format: in vitro ADME; conditions: rat, liver microsomes, pH 7.4; Table 20; read-out: Half life in Rat liver microsome
[17] = tested on: MDA-MB-435; experiment: SRB cytotoxicity assay, MDA-MB-435 parental melanoma cells; format: cell-based; conditions: Homo sapiens, read-out: IC50 ± SEM MDA-MB-435
[18] = tested on: DU145/TXR; experiment: SRB growth inhibition, paclitaxel-resistant DU145/TXR cells; format: cell-based; conditions: Homo sapiens, DU-145; Table 13A; read-out: inhibitory effects DU145/TXR
[19] = Table 13B, read-out: inhibitory effects PPC1
[20] = Table 13B, read-out: inhibitory effects DU145
[21] = Table 13B, read-out: inhibitory effects PC3
[22] = Table 13B, read-out: inhibitory effects LNCaP
[23] = Table 13A, read-out: inhibitory effects LNCaP

## 5-Phenyl-2-(3,4,5-trimethoxybenzyl)-1H-imidazole and 4-phenyl-2-(3,4,5-trimethoxybenzyl)-1H-imidazole [102a]
[1]; Table 14C
  IC50: 10200 ± 392 nM

## COc1cc(/C(=N/O)c2csc(-c3ccccc3)n2)cc(OC)c1OC [2e-cis, (Z)-(2-Phenylthiazol-4-yl)(3,4,5-trimethoxyphenyl)methanone oxime]
[2]
  half life in human liver microsome: 35 min
[3]; 2e-cis vs 2e-trans, 12jb vs 12kb
  fold more activity than the comparator: 10 fold

## COc1cc(-c2csc(-c3ccccc3)n2)cc(OC)c1OC [2i, 2-Phenyl-4-(3,4,5-trimethoxyphenyl)thiazole]
[2]
  half-life at 0.5 μM: 32 min

## COc1cc(C(=O)c2csc(-c3ccc(CN)cc3)n2)cc(OC)c1OC [2r, (2-(4-(Aminomethyl)phenyl)thiazol-4-yl)(3,4,5-trimethoxyphenyl)methanone hydrochloride]
[4]; HCl salt versus 1h
  increase of solubility (fold): over 35 fold

## COc1cc(C(=O)c2csc(Nc3ccccc3)n2)cc(OC)c1OC.Cl [5Ha, (2-(phenylamino)thiazol-4-yl)(3,4,5-trimethoxyphenyl)methanone hydrochloride salt]
[5]
  CL (systemic clearance): 17 ± 3 mL/min/kg
  Vss (volume of distribution following intravenous dosing): 1.4 ± 0.2 L/kg
  F (percent oral bioavailability), rat: 11%

## COc1cc(C(=O)c2csc(Nc3ccc(F)cc3)n2)cc(OC)c1OC.Cl [5Hc, (2-(p-fluorophenylamino)thiazol-4-yl)(3,4,5-trimethoxyphenyl)methanone hydrochloride salt]
[6]; Table 6, read-out: IC50 ± SEM PPC-1
  IC50: 43 nM
[7]; Table 6, read-out: IC50 ± SEM DU 145
  IC50: 70 nM
[8]; Table 6, read-out: IC50 ± SEM PC-3
  IC50: 53 nM
[9]; Table 6, read-out: IC50 ± SEM LNCaP
  IC50: 53 nM
[5]
  CL (systemic clearance): 13 ± 2 mL/min/kg
  Vss (volume of distribution following intravenous dosing): 1.4 ± 0.2 L/kg
  F (percent oral bioavailability), rat: 21%

## COc1cc(C(=O)c2csc(Nc3ccccc3)n2)cc(OC)c1OC [5a, (2-(phenylamino)thiazol-4-yl)(3,4,5-trimethoxyphenyl)methanone]
[4]
  aqueous solubility: 15 µg/mL (≈ 40.5 µM)

## COc1cc(C(=O)c2csc(Nc3ccc(F)cc3)n2)cc(OC)c1OC [5c, (2-(p-fluorophenylamino)thiazol-4-yl)(3,4,5-trimethoxyphenyl)methanone]
[4]
  aqueous solubility: 19 µg/mL (≈ 48.9 µM)

## COc1ccc(-c2nc(C(=O)c3ccc(F)cc3)cn2S(=O)(=O)c2ccccc2)cc1 [11cb, (4-fluorophenyl)(2-(4-methoxyphenyl)-1-(phenylsulfonyl)-1H-imidazol-4-yl)methanone]
[10]; WM164, 48 h, Table 13, 48 h, read-out: IC50 ± SEM WM164 (converted)
  IC50: 43 nM
[3]
  IC50: 43 nM

## O=C(c1ccc(F)cc1)c1cn(S(=O)(=O)c2ccccc2)c(-c2ccc(Cl)cc2)n1 [11fb, (2-(4-chlorophenyl)-1-(phenylsulfonyl)-1H-imidazol-4-yl)(4-fluorophenyl)methanone]
[3]
  IC50: 72 nM
[11]; Table 14A, multidrug-resistant cell line, n = 3
  IC50: 35 ± 3 nM
[11]; IC50 on MDA-MB-435/LCC6MDR1 divided by IC50 on MDA-MB-435
  resistance index: 0.7
[11]; MDA-MB-435/LCCMDR1 versus MDA-MB-435
  resistance index: 0.7

## COc1cc(C(=O)c2c[nH]c(-c3ccc(Cl)cc3)n2)cc(OC)c1OC [12fa, (2-(4-chlorophenyl)-1H-imidazol-4-yl)(3,4,5-trimethoxyphenyl)methanone]
[12]
  half-life at 0.5 μM: 26 min
[2]
  half-life at 0.5 μM: 56 min
[13]
  bioavailability: 62%
[14]; oral
  bioavailability: 35%
[14]; po, 10 mg/kg
  bioavailability: 35%
[15]
  half-life at 0.5 μM: 23 min
[3]
  IC50: 43 nM
[16]
  half-life at 0.5 μM: 46 min

## CN(C)c1ccc(-c2nc(C(=O)c3ccc(F)cc3)c[nH]2)cc1 [12gb, (2-(4-(dimethylamino)phenyl)-1H-imidazol-4-yl)(4-fluorophenyl)methanone]
[1]; Homo sapiens, A-375, 48 h, Table 12, 48 h
  IC50: 56 ± 7 nM
[10]; WM164, 48 h, Table 12, 48 h, read-out: IC50 ± SEM WM164 (converted)
  IC50: 62 ± 8 nM

## O=C(c1ccc(F)cc1)c1c[nH]c(-c2ccc(O)cc2)n1 [12kb]
[1]; Table 12, 48 h
  IC50: 10000 nM

## COc1cc(C(=O)c2csc(-c3ccc4[nH]ccc4c3)n2)cc(OC)c1OC [66a]
[4]
  aqueous solubility: 3.8 µg/mL (≈ 9.63 µM)

## O=C(c1ccccc1)c1nc(-c2ccccc2)c[nH]1 [70aa, phenyl-(4-phenyl-1H-imidazol-2-yl)methanone]
[6]; [19]
  IC50: > 50000 nM
[7]; [20]
  IC50: > 50000 nM
[8]; [21]
  IC50: > 50000 nM
[9]; [22]
  IC50: > 50000 nM
[11]; Table 14D
  IC50: > 50000 nM
[17]; Table 14D
  IC50: > 50000 nM

## COc1cc(C(=O)c2nc(-c3ccc(Br)cc3)c[nH]2)cc(OC)c1OC [70d, (4-(4-bromophenyl)-1H-imidazol-2-yl)(3,4,5-trimethoxyphenyl)methanone]
[7]; Table 13A, read-out: inhibitory effects DU145
  IC50: 66 nM
[8]; Table 13A, read-out: inhibitory effects PC3
  IC50: 33 nM
[9]; [23]
  IC50: 15 nM
[18]
  IC50: 63 nM

## COc1cc(C(=O)c2nc(-c3ccc(C)cc3)c[nH]2)cc(OC)c1OC [70f, (4-p-tolyl-1H-imidazol-2-yl)(3,4,5-trimethoxyphenyl)methanone]
[9]; [23]
  IC50: 13 nM
[18]
  IC50: 21 nM

## COc1cc(C(=O)c2nc(-c3cc(OC)c(OC)c(OC)c3)c[nH]2)cc(OC)c1OC [70q, 3,4,5-trimethoxyphenyl-(4-(3,4,5-trimethoxyphenyl)-1H-imidazol-2-yl)methanone]
[6]; [19]
  IC50: > 50000 nM
[7]; [20]
  IC50: > 50000 nM
[8]; [21]
  IC50: > 50000 nM
[9]; [22]
  IC50: > 50000 nM
[11]; Table 14D
  IC50: 211 nM
[17]; Table 14D
  IC50: 149 nM

## Cc1ccc(C(=O)c2nc(-c3ccc(C)cc3)c[nH]2)cc1 [70v, p-tolyl(4-p-tolyl-1H-imidazol-2-yl)methanone]
[6]; [19]
  IC50: 2400 nM
[7]; [20]
  IC50: 6540 nM
[8]; [21]
  IC50: 5160 nM
[9]; [22]
  IC50: 3760 nM

## COc1ccc(C(=O)c2nc(-c3ccc(OC)cc3)c[nH]2)cc1 [70w, (4-methoxyphenyl)(4-(4-methoxyphenyl)-1H-imidazol-2-yl)methanone]
[6]; [19]
  IC50: 38200 nM
[7]; [20]
  IC50: 9390 nM
[8]; [21]
  IC50: 23400 nM
[9]; [22]
  IC50: 6410 nM

## COc1cc(-c2c[nH]c(C(=O)c3ccc(Br)cc3)n2)cc(OC)c1OC [70z, 4-bromophenyl(4-(3,4,5-trimethoxyphenyl)-1H-imidazol-2-yl)methanone]
[6]; [19]
  IC50: 107 nM
[7]; [20]
  IC50: 430 nM
[8]; [21]
  IC50: 371 nM
[9]; [22]
  IC50: 131 nM

## COc1cc(Cc2nc(-c3ccccc3)c(C)[nH]2)cc(OC)c1OC [102b, 5-methyl-4-phenyl-2-(3,4,5-trimethoxybenzyl)-1H-imidazole]
[1]; Homo sapiens, A-375, Table 14C
  IC50: > 50000 nM

## CCc1[nH]c(Cc2cc(OC)c(OC)c(OC)c2)nc1-c1ccccc1 [102c, 5-ethyl-4-phenyl-2-(3,4,5-trimethoxybenzyl)-1H-imidazole]
[11]; Table 14C
  IC50: > 50000 nM
[17]; Table 14C
  IC50: > 50000 nM

## CCCc1[nH]c(Cc2cc(OC)c(OC)c(OC)c2)nc1-c1ccccc1 [102d, 4-phenyl-5-propyl-2-(3,4,5-trimethoxybenzyl)-1H-imidazole]
[11]; Table 14C
  IC50: 15900 nM
[17]; Table 14C
  IC50: 11000 nM

## COc1ccc(C(=O)n2ccnc2-c2ccc(F)cc2)cc1 [compound 24]
[6]; Table 6A, read-out: IC50 PPC-1
  IC50: > 10000 nM
[7]; Table 6A, read-out: IC50 DU 145
  IC50: > 10000 nM
[8]; Table 6A, read-out: IC50 PC-3
  IC50: > 10000 nM
[9]; Table 6A, read-out: IC50 LNCaP
  IC50: > 10000 nM

## COc1cc(C(=O)c2csc(-c3ccccc3)n2)cc(OC)c1O [compound 34]
[9]; Table 6A, read-out: IC50 LNCaP
  IC50: > 10000 nM
[10]; WM164, Table 6A, read-out: IC50 WM164
  IC50: > 10000 nM
